Measured values taken from patent publication US20140120191A1, “METHOD OF TREATING A DISORDER ASSOCIATED WITH S[…]” (BEECH TREE LABS INC., priority 2011, published 2014).
Entries after “also recorded” stand apart in the source; their conditions may differ.

Tested on: R. equi
Assay: R. equi intrabronchial challenge model of pneumonia in foals
Assay type: in vivo
Details: SLO 2 IU subcutaneous twice a day without antibiotics
Protocol: Animals: 24 foals (average age 4 +/− days old) were used in this challenge model and two additional foals served as uninfected controls. The foals were raised on a Veterinary Science farm and kept with their mares throughout the study. Foals were evaluated shortly after birth for inclusion in the study using the following criteria; normality in physical examination, absence of lung sounds on auscultation, normal temperature, and unremarkable ultrasound examination of the lungs. None of the foals received anti-rhodococcal plasma or other treatments prior to enrollment in the study. The foals were moved with their dams to individual box stalls in a BSL2 isolation facility. Baseline values for heart rate, respiratory rate, temperature, fibrinogen concentration, and leukocyte count were obtained. […]
After the foals were sedated, a flexible fiberoptic endoscope was used to deliver the bacteria suspended in 35 ml of sterile PBS into both main bronchi. […] The foals were returned to their stalls and dams and monitored daily for changes in rectal temperature, respiration, and pulse as determined by physical exam and auscultation of the lungs. […] Clinical signs recorded included lung auscultations, overall attitude, appetite, resting respiratory rate and pulse. […] Daily observation of attitude, appetite, lung auscultation were scored (0-4) and combined to generate an overall daily score for each foal. […]

streptolysin O [SLO alone]
treatment effect / clinical course: deteriorated rapidly and required early euthanasia; also recorded: no treatment effect
